In this assay the test system is 966289-007-R4-J1-PDC complex spheroid viability. Put plainly: Anticancer human tumor 966289-007-R4-J1-PDC patient-derived pancreatic adenocarcinoma cell line growth inhibition [RAS]. To be noted: for viability, T/C: stronger effect = lower value. An excerpt:
RAS pathway inhibitors in Combinations in Complex Spheroids
A high-throughput screen of multi-cell type tumor spheroids was designed to identify active combinations of RAS pathway inhibitors and targeted small molecules. Complex spheroids include a stromal component modeled by human endothelial cells (HUVEC) and fibroblasts modeled by human mesenchymal stem cells (MSCs). The concentration ranges selected for each drug and investigational agent were based upon clinically achievable concentrations if the clinical Cmax of the agent was known.
Compounds. The drugs and investigational agents: abemaciclib (NSC768073), cobimetinib (NSC768068), divarasib (GDC6063, NSC841802), docetaxel (NSC628503), GDC-1971 (RLY-1971, NSC841576), gemcitabine (NSC613327), inavolisib (NSC800729), ipatasertib (NSC767898), KB-0742 (NSC834161), MRTX-1133 (NSC836407), osimertinib (NSC779217), RMC-4630 (NSC839698), RMC-6236 (NSC851965), RMC-6291 (NSC852671), Ro-3306 (NSC812927), sapanisertib (NSC764658), SN-38 (NSC673596), staurosporine (NSC755774), SY5609 (NSC837396), and tovorafenib (DAY101, NSC766906), were obtained from the National Cancer Institute (NCI) Developmental Therapeutics Program Chemical Repository. The FDA-approved anticancer drug set is available from the NCI Developmental Therapeutics Program. […] The stock solutions were prepared in dimethyl sulfoxide (DMSO, Sigma-Aldrich, St. Louis, MO, cat. D2650) at 800-fold the tested concentration and stored at -70 degrees C prior to their use. All drugs and investigational agents were tested over a range starting from a high concentration at or near the clinical Cmax and decreasing in half-log increments. If the clinical Cmax for an agent had not been determined, the highest concentration tested was 10 microM.
Cell Culture. All cells were maintained in an incubator at 37 degrees C and 5% CO2 with 95% humidity. The PDC lines were cultured according to standard operating procedures established by the NCI PDMR. All PDCs were thawed and cultured in Matrigel-coated flasks prepared with a working solution of 1X Ham's F-12 nutrient mix, without supplementation (Invitrogen, Waltham, MA, cat. 11765054), 100 U/mL penicillin-streptomycin (Invitrogen, cat. 15140122), and 2.5% Matrigel (Corning Inc., Corning, NY, cat. 354248) for the first three passages. The 362531-283-R-J2-PDC and 782815-120-R-J1-PDC lines were cultured in 6C/Colon 1B media, which includes advanced DMEM/F-12 (Thermo Fisher Scientific, cat. 12634028), 10 mM HEPES (Thermo Fisher Scientific, cat. 15630080), 1X GlutaMAX supplement (Thermo Fisher Scientific, cat. 35050061), 0.1 mg/mL primocin (InvivoGen, San Diego, CA, cat. ant-pm-2), 10% defined fetal bovine serum, heat inactivated (HyClone Laboratories Inc., Logan, UT, cat. SH30070.03HI), 50% L-WRN conditioned media (ATCC, cat. CRL-3276), 1.25 mM N-Acetyl-L-cysteine (Sigma-Aldrich, cat. A9165), 10 mM nicotinamide (Sigma-Aldrich, cat. N0636), 1X B-27 supplement (Thermo Fisher Scientific, cat. 17504044), 1X N-2 supplement (Thermo Fisher Scientific, cat. 17502048), 50 ng/mL human EGF (Thermo Fisher Scientific, cat. PHG0311), and 10 microM Y-27632 dihydrochloride (Tocris Bioscience, cat. 1254). The K12877-001-R-J1-PDC line was cultured in 6I media, which includes all 6C/Colon 1B media plus 10 ng/mL human FGF-10 (PeproTech, cat. 100-26), 1 ng/mL human FGF-2 (PeproTech, cat. 100-18B), 1 µM prostaglandin E2 (Tocris Bioscience, cat. 2296), […] hydrocortisone (Sigma-Aldrich, cat. H4001), and […] bovine insulin (Sigma-Aldrich, cat. I6634). The K86415-001-R-J1-PDC line was cultured in 6D media, which includes all 6C/Colon 1B media components minus the L-WRN conditioned media. The 485176-168-R4-J1-PDC was cultured in PANC media, which includes all 6C/Colon 1B media plus 100 ng/mL human FGF-10 (PeproTech, cat. 100-26), 500 nM SB-431542 (Selleckchem, cat. S1067), and 10 nM gastrin (Tocris Bioscience, cat. 3006). […]

pIC50: −log10 of the molar value. Where “and” joins values, the source holds several entries; their conditions need not be identical. Equal entries are not always repeated.
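Further: spheroids exposed to agents for one week before readout.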
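Wherever viability, T/C is given: percent viability relative to DMSO vehicle control wells as 100%.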

Turning to `CCc1c2c(nc3ccc(O)cc13)-c1cc3c(c(=O)n1C2)COC(=O)[C@]3(O)CC` + C#Cc1c(F)ccc2cc(O)cc(-c3ncc4c(N5CC6CCC(C5)N6)nc(OCC56CCCN5CC(F)C6)nc4c3F)c12, the pIC50 by setting is: (curve of first compound, second compound 0.0316 µM) 8.80; (curve of first compound, second compound 0.1 µM) 8.82; (curve of first compound, second compound 0.316 µM) 8.84; (curve of first compound, second compound 1 µM) 8.84; (curve of first compound, second compound 3.16 µM) 8.82; (curve of first compound, second compound 10 µM) 8.85. The viability, T/C runs as follows: (second compound 0.0316 µM, first compound 0.000949 µM) 88.6%; (second compound 0.0316 µM, first compound 0.003 µM) 2.5%; (second compound 0.0316 µM, first compound 0.00949 µM) 1.27%; (second compound 0.0316 µM, first compound 0.03 µM) 0.94%; (second compound 0.0316 µM, first compound 0.0949 µM) 1.06%; (second compound 0.0316 µM, first compound 0.3 µM) 1.14%. Also, the viability, T/C is, setting by setting: (second compound 0.1 µM, first compound 0.000949 µM) 81.8%; (second compound 0.1 µM, first compound 0.003 µM) 2.09%; (second compound 0.1 µM, first compound 0.00949 µM) 0.95%; (second compound 0.1 µM, first compound 0.03 µM) 1.18%; (second compound 0.1 µM, first compound 0.0949 µM) 0.87%; (second compound 0.1 µM, first compound 0.3 µM) 1.15%. Also, the viability, T/C (second compound 0.316 µM, first compound 0.000949 µM) was 76.5%; the viability, T/C (second compound 0.316 µM, first compound 0.003 µM) was 2.19%; the viability, T/C (second compound 0.316 µM, first compound 0.00949 µM) is 1.22%; the viability, T/C (second compound 0.316 µM, first compound 0.03 µM) is 1.04%; the viability, T/C (second compound 0.316 µM, first compound 0.0949 µM) was 0.89%; the viability, T/C (second compound 0.316 µM, first compound 0.3 µM) is 1.23%. For the same compound, the viability, T/C was 77.1% (second compound 1 µM, first compound 0.000949 µM); 1.99% (second compound 1 µM, first compound 0.003 µM); 1.31% (second compound 1 µM, first compound 0.00949 µM); 1.22% (second compound 1 µM, first compound 0.03 µM); 1.16% (second compound 1 µM, first compound 0.0949 µM); 1.16% (second compound 1 µM, first compound 0.3 µM). The viability, T/C (second compound 3.16 µM, first compound 0.000949 µM) is 82.2%; the viability, T/C (second compound 3.16 µM, first compound 0.003 µM) is 2.82%; the viability, T/C (second compound 3.16 µM, first compound 0.00949 µM) was 1.66%; the viability, T/C (second compound 3.16 µM, first compound 0.03 µM) was 1.34%; the viability, T/C (second compound 3.16 µM, first compound 0.0949 µM) is 1.54%; the viability, T/C (second compound 3.16 µM, first compound 0.3 µM) was 1.55%. Also, the viability, T/C is, setting by setting: (second compound 10 µM, first compound 0.000949 µM) 75.1%; (second compound 10 µM, first compound 0.003 µM) 1.37%; (second compound 10 µM, first compound 0.00949 µM) 1.04%; (second compound 10 µM, first compound 0.03 µM) 0.91%; (second compound 10 µM, first compound 0.0949 µM) 0.84%; (second compound 10 µM, first compound 0.3 µM) 0.55%.

In the case of `CC(Nc1ccc2c(c1)OCCn1cc(N3C(=O)OCC3C(F)F)nc1-2)C(N)=O` (stereo not given), the viability, T/C was 101% (2×) and 121% and 106% (compound 0.316 µM); 87.9% [middle of 4 runs] (compound 10 µM). For the same compound, the pIC50 (curve of compound) is less than 5.00.

The record behind these values is PubChem BioAssay AID2060897 (Molecular Pharmacology Branch, DTP, NCI, 2025).
